According to patent US9833497B2, “Human originated EGF domain proteins and use of the same” (CHENGDU SOURCEBIO LIMITED-LIABILITY COMPANY, priority 2013, dated 2017):

Key:
Format in all cases: cell-based
Klebsiella pneumonia = assay: MIC against Gram-negative bacteria: Klebsiella pneumonia
How it was run: (§1)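 The recombinant human-originated EGF domain proteins were serially diluted two-fold against bacteria at 5×10^5 CFU/mL in LB medium. After shaken incubation at 37° C, the lowest concentration with no bacterial growth was recorded as the MIC.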

E. coli DH5α = assay: Antibacterial activity: MIC and growth curve against E. coli DH5α in 96-well plate; conditions: minimal inhibitory concentration against E. coli DH5α; 96-well plate, 5×10^5 CFU/mL, 37° C., judged after 8 h
How it was run: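 Log-phase DH5α (OD600 about 0.5, 37° C, 185 rpm in LB) was pelleted, resuspended in fresh LB and seeded at 5×10^5 CFU/mL with recombinant protein at 50, 25 and 12.5 μg/mL (two-fold series), in triplicate. Plates were shaken at 175 rpm, 37° C, and OD600 was read every 30 min. MIC was the lowest concentration with no growth.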

E. coli BL21 = assay: MIC against Gram-negative bacteria: E. coli BL21; conditions: E. coli BL21
How it was run: as §1

Proteus vulgaris = assay: MIC against Gram-negative bacteria: Proteus vulgaris
How it was run: as §1

Aeromonas hydrophila = assay: MIC against Gram-negative bacteria: Aeromonas hydrophila
How it was run: as §1

Moraxella catarrhalis = assay: MIC against Gram-negative bacteria: Moraxella catarrhalis
How it was run: as §1

Enterobacter cloacae = assay: MIC against Gram-negative bacteria: Enterobacter cloacae
How it was run: as §1

Pseudomonas aeruginosa = assay: MIC against Gram-negative bacteria: Pseudomonas aeruginosa
How it was run: as §1

Proteus mirabilis = assay: MIC against Gram-negative bacteria: Proteus mirabilis
How it was run: as §1

Serratia marcescens = assay: MIC against Gram-negative bacteria: Serratia marcescens
How it was run: as §1

Citrobacter diversus = assay: MIC against Gram-negative bacteria: Citrobacter diversus
How it was run: as §1

[1] = Klebsiella pneumonia, 5×10^5 CFU/mL, 10 h cultivation at 37° C.
[2] = 5×10^5 CFU/mL, 10 h cultivation at 37° C.
[3] = Proteus vulgaris, 5×10^5 CFU/mL, 10 h cultivation at 37° C.
[4] = Aeromonas hydrophila, 5×10^5 CFU/mL, 10 h cultivation at 37° C.
[5] = Moraxella catarrhalis, 5×10^5 CFU/mL, 10 h cultivation at 37° C.
[6] = Enterobacter cloacae, 5×10^5 CFU/mL, 10 h cultivation at 37° C.
[7] = Pseudomonas aeruginosa, 5×10^5 CFU/mL, 10 h cultivation at 37° C.
[8] = Proteus mirabilis, 5×10^5 CFU/mL, 10 h cultivation at 37° C.
[9] = Serratia marcescens, 5×10^5 CFU/mL, 10 h cultivation at 37° C.
[10] = Citrobacter diversus, 5×10^5 CFU/mL, 10 h cultivation at 37° C.
[11] = Klebsiella pneumonia, 96-well plate, 5×10^5 CFU/mL, 37° C., 10 h
[12] = 96-well plate, 5×10^5 CFU/mL, 37° C., 10 h
[13] = Proteus vulgaris, 96-well plate, 5×10^5 CFU/mL, 37° C., 10 h
[14] = Aeromonas hydrophila, 96-well plate, 5×10^5 CFU/mL, 37° C., 10 h
[15] = Moraxella catarrhalis, 96-well plate, 5×10^5 CFU/mL, 37° C., 10 h
[16] = Enterobacter cloacae, 96-well plate, 5×10^5 CFU/mL, 37° C., 10 h
[17] = Pseudomonas aeruginosa, 96-well plate, 5×10^5 CFU/mL, 37° C., 10 h
[18] = Proteus mirabilis, 96-well plate, 5×10^5 CFU/mL, 37° C., 10 h
[19] = Serratia marcescens, 96-well plate, 5×10^5 CFU/mL, 37° C., 10 h
[20] = Citrobacter diversus, 96-well plate, 5×10^5 CFU/mL, 37° C., 10 h

Substance	MIC against K. pneumonia (Klebsiella pneumonia; [1]) [µg/mL]	MIC (E. coli DH5α) [µg/mL]	MIC against E. coli BL21 (E. coli BL21; [2]) [µg/mL]	MIC against P. vulgaris (Proteus vulgaris; [3]) [µg/mL]	MIC against A. hydrophila (Aeromonas hydrophila; [4]) [µg/mL]	MIC against M. catarrhalis (Moraxella catarrhalis; [5]) [µg/mL]	MIC against E. cloacae (Enterobacter cloacae; [6]) [µg/mL]	MIC against P. aeruginosa (Pseudomonas aeruginosa; [7]) [µg/mL]	MIC against P. mirabilis (Proteus mirabilis; [8]) [µg/mL]	MIC against S. marcescens (Serratia marcescens; [9]) [µg/mL]	MIC against C. diversus (Citrobacter diversus; [10]) [µg/mL]	MIC against K. pneumonia (Klebsiella pneumonia; [11]) [µg/mL]	MIC against E. coli BL21 (E. coli BL21; [12]) [µg/mL]	MIC against P. vulgaris (Proteus vulgaris; [13]) [µg/mL]	MIC against A. hydrophila (Aeromonas hydrophila; [14]) [µg/mL]	MIC against M. catarrhalis (Moraxella catarrhalis; [15]) [µg/mL]	MIC against E. cloacae (Enterobacter cloacae; [16]) [µg/mL]	MIC against P. aeruginosa (Pseudomonas aeruginosa; [17]) [µg/mL]	MIC against P. mirabilis (Proteus mirabilis; [18]) [µg/mL]	MIC against S. marcescens (Serratia marcescens; [19]) [µg/mL]	further results
PRT1447 (GCGAGRWGPGCTKECPGCLHGGVCHDHDGECVCPPGFTGTRCE; listed as Homo sapiens)	12.5	100	25	12.5	50	50	12.5	12.5	25	25	12.5	–	–	–	–	–	–	–	–	–	–
PRT1211 (LSPYCKDEPCKNGGTCFDSLDGAVCQCDSGFRGERCQ; listed as Homo sapiens)	–	50	–	–	–	–	–	–	–	–	–	25	25	25	25	25	50	12.5	50	12.5	MIC against C. diversus (Citrobacter diversus; [20]): 12.5 µg/mL
PRT1242 (WGPECQQQCECVRGRCSAASGECTCPPGFRGARCE; listed as Homo sapiens)	–	25	–	–	–	–	–	–	–	–	–	12.5	50	25	25	25	25	25	12.5	50	MIC against C. diversus (Citrobacter diversus; [20]): 50 µg/mL
PRT42 (CQCNGHSKCINQSICEKCENLTTGKHCETCISGFYGDPTNGGKCQP; listed as Homo sapiens)	–	25	–	–	–	–	–	–	–	–	–	–	–	–	–	–	–	–	–	–	MIC (μg/mL) K. pneumonia (Klebsiella pneumonia; [11]): 12.5 µg/mL; MIC (μg/mL) E. coli BL21 (E. coli BL21; [12]): 12.5 µg/mL; MIC (μg/mL) P. vulgaris (Proteus vulgaris; [13]): 100 µg/mL; MIC (μg/mL) A. hydrophila (Aeromonas hydrophila; [14]): 12.5 µg/mL; MIC (μg/mL) M. catarrhalis (Moraxella catarrhalis; [15]): 12.5 µg/mL; MIC (μg/mL) E. cloacae (Enterobacter cloacae; [16]): 25 µg/mL; MIC (μg/mL) P. aeruginosa (Pseudomonas aeruginosa; [17]): 25 µg/mL; MIC (μg/mL) P. mirabilis (Proteus mirabilis; [18]): 25 µg/mL; MIC (μg/mL) S. marcescens (Serratia marcescens; [19]): 50 µg/mL; MIC (μg/mL) C. diversus (Citrobacter diversus; [20]): 25 µg/mL
PRT904 (NTPDCTESSCFNGGTCVDGINSFTCLCPPGFTGSYCQ; listed as Homo sapiens)	–	50	–	–	–	–	–	–	–	–	–	–	–	–	–	–	–	–	–	–	MIC (Klebsiella pneumonia; K. pneumonia, 10 h cultivation at 37° C.): 12.5 µg/mL; MIC (E. coli BL21; 10 h cultivation at 37° C.): 12.5 µg/mL; MIC (Proteus vulgaris; P. vulgaris, 10 h cultivation at 37° C.): 25 µg/mL; MIC (Aeromonas hydrophila; A. hydrophila, 10 h cultivation at 37° C.): 25 µg/mL; MIC (Moraxella catarrhalis; M. catarrhalis, 10 h cultivation at 37° C.): 25 µg/mL; MIC (Enterobacter cloacae; E. cloacae, 10 h cultivation at 37° C.): 12.5 µg/mL; MIC (Pseudomonas aeruginosa; P. aeruginosa, 10 h cultivation at 37° C.): 25 µg/mL; MIC (Proteus mirabilis; P. mirabilis, 10 h cultivation at 37° C.): 12.5 µg/mL; MIC (Serratia marcescens; S. marcescens, 10 h cultivation at 37° C.): 25 µg/mL; MIC (Citrobacter diversus; C. diversus, 10 h cultivation at 37° C.): 12.5 µg/mL
PRT1433 (PPRRCDSNPCFRGVQCTDSRDGFQCGPCPEGYTGNGITCI; listed as Homo sapiens)	12.5	12.5	12.5	12.5	25	12.5	12.5	12.5	25	12.5	12.5	–	–	–	–	–	–	–	–	–	–
